Laboratory results reported in US10597375B2, “Halogen-substituted heterocyclic compound” (UBE INDUSTRIES, LTD., priority 2012, dated 2020).

Key:
[1] = system: A2058 human melanoma cells; test: Cell migration test (LPA-induced, Chemo-Tx); type: cell-based; conditions: LPA 100 nM, 3 hours, read-out: IC50: concentration of the test compound which inhibits the cell migration activity of LPA by 50%
Procedure: The cell migration test was carried out using Chemo-Tx (registered trademark) (116-8, Neuro Probe). A2058 human melanoma cells (obtained from European Collection of Cell Culture) were cultured in a serum-free EMEM medium for 24 hours, and then re-suspended in a 0.1% BSA-containing DMEM medium to obtain a cell suspension. The test compound dissolved in DMSO in various concentration was each added to the cell suspension, and the suspension was cultured at 37° C. for 15 minutes (the final DMSO concentration of 0.5%). LPA dissolved in a 0.1% BSA-containing DMEM medium (the final concentration of 100 nM) was added to Chemo-Tx 96 well plate, and a Chemo-Tx filter which had been coated with 0.001% Fibronectin on the both surfaces was put on the plate. The suspension of cultured cells (25,000 cells) was added onto the upper surface of the filter and further cultured at 37° C. for 3 hours, and the cells on the upper surface of the filter were removed. After the filter was removed and dried, the cells which had migrated to the lower surface of the filter were stained using Diff-Quik stain (16920, Sysmex). The absorbance of the filter (570 nm) was measured and the concentration of the test compound which inhibits the cell migration activity of LPA by 50%, (1050) was determined by non-linear regression analysis using EXSAS (version 7.6.0, Arm Systex).

[2] = system: LPA-induced histamine release; test: LPA-induced histamine release test in mouse; type: in vivo; conditions: male CD1 mice; oral dose of 10 mg/kg; LPA 300 μg/mouse via tail vein 4 hours after administration; blood 2 minutes after LPA; read-out: efficacy rate (rate of individuals which showed the inhibition rate of 80% or more of plasma histamine)
Procedure: LPA-Induced Histamine Release Test in Mouse
LPA-induced histamine release test in mouse was carried out according to a method by Swaney et al. (The Journal of Pharmacology and Experimental Therapeutics, 336 (2011), pages 693-700). The test compound was suspended in 0.5% methylcellulose solution (133-14255, Wako), and orally administered to male CD1 mice (body weight: 30 to 40 g, supplied by Charles River Laboratories Japan) at a dose of 10 mL/kg. 4 hours after administration, LPA (857130P, Avanti) dissolved in a 0.1% BSA-containing PBS was administered via the tail vein (300 μg/mouse). Immediately, the mouse was anesthetized with isoflurane, and blood was collected via a vein 2 minutes after the administration of LPA. The blood was put into a test tube containing EDTA, and centrifuged at 4° C., 2,000×g, for 10 minutes to obtain the plasma.
The histamine concentration in the plasma was measured by EIA kit (62HTMPEB, Cisbio Bioassays).

Row | IC50 [1] [µM] | SMILES | responders at 10 mg/kg [2] [%]
1 | ≤ 0.2 | CC(OC(=O)Nc1cc(F)sc1-c1ccc(-c2ccc(C3(C(=O)O)CC3)cc2)cc1)c1ccsc1 (racemic) [I-639, (RS)-1-{4′-[5-Fluoro-3-({[1-(thiophen-3-yl)ethoxy]carbonyl}amino)thiophen-2-yl]-[1,1′-biphenyl]-4-yl}cyclopropanecarboxylic acid] | ≥ 50
2 | ≤ 0.2 | Cc1cscc1C(C)OC(=O)Nc1cc(F)sc1-c1ccc(-c2ccc(C3(C(=O)O)CC3)cc2)cc1 (racemic) [I-649, (RS)-1-{4′-[5-Fluoro-3-({[1-(4-methylthiophen-3-yl)ethoxy]carbonyl}amino)thiophen-2-yl]-[1,1′-biphenyl]-4-yl}cyclopropanecarboxylic acid] | ≥ 50
3 | ≤ 0.2 | CC(OC(=O)Nc1cc(F)sc1-c1ccc(-c2ccc(C3(C(=O)O)CC3)cc2)cc1)c1cscc1Cl (racemic) [I-657, (RS)-1-{4′-[3-({[1-(4-Chlorothiophen-3-yl)ethoxy]carbonyl}amino)-5-fluorothiophen-2-yl]-[1,1′-biphenyl]-4-yl}cyclopropanecarboxylic acid] | ≥ 50
4 | ≤ 0.2 | COc1cc(-c2sc(F)cc2NC(=O)OC(C)c2ccsc2)ccc1-c1ccc(C2(C(=O)O)CC2)cc1 (racemic) [I-811, (RS)-1-{4′-[5-Fluoro-3-({[1-(thiophen-3-yl)ethoxy]carbonyl}amino)thiophen-2-yl]-2′-methoxy-[1,1′-biphenyl]-4-yl}cyclopropanecarboxylic acid] | ≥ 50
5 | ≤ 0.2 | C[C@@H](OC(=O)Nc1cc(Cl)sc1-c1ccc(-c2ccc(C3(C(=O)O)CC3)cc2)cc1)c1ccc(F)cc1F [I-64, (R)-1-{4′-[5-Chloro-3-({[1-(2,4-difluorophenyl)ethoxy]carbonyl}amino)thiophen-2-yl]-[1,1′-biphenyl]-4-yl}cyclopropanecarboxylic acid] | ≥ 50
6 | ≤ 0.2 | C[C@@H](OC(=O)Nc1cc(Cl)sc1-c1ccc(-c2ccc(C3(C(=O)O)CC3)cc2)cc1)c1cc(F)ccc1F [I-68, (R)-1-{4′-[5-Chloro-3-({[1-(2,5-difluorophenyl)ethoxy]carbonyl}amino)thiophen-2-yl]-[1,1′-biphenyl]-4-yl}cyclopropanecarboxylic acid] | ≥ 50
7 | ≤ 0.2 | Cc1ccccc1[C@@H](C)OC(=O)Nc1cc(F)sc1-c1ccc(-c2ccc(C3(C(=O)O)CC3)cc2)cc1 [I-136, (R)-1-{4′-[5-Fluoro-3-({[1-(o-tolyl)ethoxy]carbonyl}amino)thiophen-2-yl]-[1,1′-biphenyl]-4-yl}cyclopropanecarboxylic acid] | ≥ 50
8 | ≤ 0.2 | C[C@@H](OC(=O)Nc1cc(Cl)sc1-c1ccc(-c2ccc(C3(C(=O)O)CC3)cc2)nc1)c1ccccc1 [I-196, (R)-1-{4-[5(5-Chloro-3-{[(1-phenylethoxy)carbonyl]amino}thiophen-2-yl)pyridine-2-yl]phenyl}cyclopropanecarboxylic acid] | ≥ 50
9 | ≤ 0.2 | COc1cc(-c2sc(Cl)cc2NC(=O)O[C@H](C)c2ccccc2)ccc1-c1ccc(C2(C(=O)O)CC2)cc1 [I-350, (R)-1-[4′-(5-Chloro-3-{[(1-phenylethoxy)carbonyl]amino}thiophen-2-yl)-2′-methoxy-[1,1′-biphenyl]-4-yl]cyclopropanecarboxylic acid] | ≥ 50
10 | ≤ 0.2 | COc1cc(-c2sc(Cl)cc2NC(=O)O[C@H](C)c2ccccc2F)ccc1-c1ccc(C2(C(=O)O)CC2)cc1 [I-354, (R)-1-{4′-[5-Chloro-3-({[1-(2-fluorophenyl)ethoxy]carbonyl}amino)thiophen-2-yl]-2′-methoxy-[1,1′-biphenyl]-4-yl}cyclopropanecarboxylic acid] | ≥ 50
11 | ≤ 0.2 | COc1cc(-c2sc(Cl)cc2NC(=O)O[C@H](C)c2cccc(F)c2)ccc1-c1ccc(C2(C(=O)O)CC2)cc1 [I-358, (R)-1-{4′-[5-Chloro-3-({[1-(3-fluorophenyl)ethoxy]carbonyl}amino)thiophen-2-yl]-2′-methoxy-[1,1′-biphenyl]-4-yl}cyclopropanecarboxylic acid] | ≥ 50
12 | ≤ 0.2 | COc1cc(-c2sc(Cl)cc2NC(=O)O[C@H](C)c2ccc(F)cc2)ccc1-c1ccc(C2(C(=O)O)CC2)cc1 [I-362, (R)-1-{4′-[5-Chloro-3-({[1-(4-fluorophenyl)ethoxy]carbonyl}amino)thiophen-2-yl]-2′-methoxy-[1,1′-biphenyl]-4-yl}cyclopropanecarboxylic acid] | ≥ 50
13 | ≤ 0.2 | COc1cc(-c2sc(Cl)cc2NC(=O)O[C@H](C)c2ccccc2Cl)ccc1-c1ccc(C2(C(=O)O)CC2)cc1 [I-366, (R)-1-{4′-[5-Chloro-3-({[1-(2-chlorophenyl)ethoxy]carbonyl}amino)thiophen-2-yl]-2′-methoxy-[1,1′-biphenyl]-4-yl}cyclopropanecarboxylic acid] | ≥ 50
14 | ≤ 0.2 | COc1cc(-c2sc(Cl)cc2NC(=O)O[C@H](C)c2ccc(Cl)cc2)ccc1-c1ccc(C2(C(=O)O)CC2)cc1 [I-370, (R)-1-{4′-[5-Chloro-3-({[1-(4-chlorophenyl)ethoxy]carbonyl}amino)thiophen-2-yl]-2′-methoxy-[1,1′-biphenyl]-4-yl}cyclopropanecarboxylic acid] | ≥ 50
15 | ≤ 0.2 | COc1cc(-c2sc(Cl)cc2NC(=O)O[C@H](C)c2ccccc2C)ccc1-c1ccc(C2(C(=O)O)CC2)cc1 [I-374, (R)-1-{4′-[5-Chloro-3-({[1-(o-tolyl)ethoxy]carbonyl}amino)thiophen-2-yl]-2′-methoxy-[1,1′-biphenyl]-4-yl}cyclopropanecarboxylic acid] | ≥ 50
16 | ≤ 0.2 | COc1cc(-c2sc(Cl)cc2NC(=O)O[C@H](C)c2ccc(F)cc2F)ccc1-c1ccc(C2(C(=O)O)CC2)cc1 [I-378, (R)-1-{4′-[5-Chloro-3-({[1-(2,4-difluorophenyl)ethoxy]carbonyl}amino)thiophen-2-yl]-2′-methoxy-[1,1′-biphenyl]-4-yl}cyclopropanecarboxylic acid] | ≥ 50
17 | ≤ 0.2 | C[C@@H](OC(=O)Nc1cc(Cl)sc1-c1ccc(-c2ccc(C3(C(=O)O)CC3)cc2)c([N+](=O)[O-])c1)c1ccc(F)cc1 [I-498, (R)-1-{4′-[5-Chloro-3-({[1-(4-fluorophenyl)ethoxy]carbonyl}amino)thiophen-2-yl]-2′-nitro-[1,1′-biphenyl]-4-yl}cyclopropanecarboxylic acid] | –
18 | ≤ 0.2 | C[C@@H](OC(=O)Nc1cc(Cl)sc1-c1ccc(-c2ccc(C3(C(=O)O)CC3)cc2)c([N+](=O)[O-])c1)c1ccccc1Cl [I-502, (R)-1-{4′-[5-Chloro-3-({[1-(2-chlorophenyl)ethoxy]carbonyl}amino)thiophen-2-yl]-2′-nitro-[1,1′-biphenyl]-4-yl}cyclopropanecarboxylic acid] | –
19 | ≤ 0.2 | C[C@@H](OC(=O)Nc1cc(Cl)sc1-c1ccc(-c2ccc(C3(C(=O)O)CC3)cc2)c(N)c1)c1ccccc1 [I-534] | –
20 | ≤ 0.2 | C[C@@H](OC(=O)Nc1cc(Cl)sc1-c1ccc(-c2ccc(C3(C(=O)O)CC3)cc2)cc1)c1cccs1 [I-630, (R)-1-{4′-[5-Chloro-3-({[1-(thiophen-2-yl)ethoxy]carbonyl}amino)thiophen-2-yl]-[1,1′-biphenyl]-4-yl}cyclopropanecarboxylic acid] | –
21 | ≤ 0.2 | C[C@@H](OC(=O)Nc1cc(F)sc1-c1ccc(-c2ccc(C3(C(=O)O)CC3)cc2)cc1)c1cccs1 [I-674, (R)-1-{4′-[5-Fluoro-3-({[1-(thiophen-2-yl)ethoxy]carbonyl}amino)thiophen-2-yl]-[1,1′-biphenyl]-4-yl}cyclopropanecarboxylic acid] | –
22 | ≤ 0.2 | COc1cc(-c2sc(Cl)cc2NC(=O)O[C@H](C)c2cccs2)ccc1-c1ccc(C2(C(=O)O)CC2)cc1 [I-808, (R)-1-{4′-[5-Chloro-3-({[1-(thiophen-2-yl)ethoxy]carbonyl}amino)thiophen-2-yl]-2′-methoxy-[1,1′-biphenyl]-4-yl}cyclopropanecarboxylic acid] | –
23 | ≤ 0.2 | COc1cc(-c2sc(F)cc2NC(=O)O[C@H](C)c2cccs2)ccc1-c1ccc(C2(C(=O)O)CC2)cc1 [I-840, (R)-1-{4′-[5-Fluoro-3-({[1-(thiophen-2-yl)ethoxy]carbonyl}amino)thiophen-2-yl]-2′-methoxy-[1,1′-biphenyl]-4-yl}cyclopropanecarboxylic acid] | –
